Results taken from US20060014717A1, “Therapeutic compositions for use in prophylaxis or treatment of diarrheas” (priority 2002, published 2006).

How the values were obtained:
[1] = test system: EPEC strain; conditions: listed in decreasing order of activity; cited from earlier work
[2] = test system: diarrheagenic E. coli; assay: Inhibition with soluble oligosaccharides in the chromatogram binding assay; parameters: species or system Escherichia coli
Experimental: (§1) Glycosphingolipid Binding Assays—Binding of ^35S-labeled bacteria to glycosphingolipids on thin-layer chromatograms was done as reported (7). Dried chromatograms were dipped for 1 min in diethylether/n-hexane (1:5, by volume) containing 0.5% (w/v) polyisobutylmethacrylate (Aldrich Chem. Comp. Inc., Milwaukee, Wis.). After drying, the chromatograms were soaked in PBS containing 2% bovine serum albumin (w/v), 0.1% NaN3 (w/v) and 0.1% Tween 20 (by volume) for 2 h at room temperature. The chromatograms were subsequentely covered with radiolabeled bacteria diluted in PBS (2-5×10^6 cpm/ml). Incubation was done for 2 h at room temperature, followed by repeated washings with PBS. The chromatograms were thereafter autoradiographed using XAR-5 X-ray films (Eastman Kodak, Rochester, N.Y.) for 12 h. Autoradiograms were replicated using a CCD camera (Dage-MTI, Inc., Michigan City, Ind.), and analysis of the images was performed using the public domain NIH Image program (developed at the U.S. National Institutes of Health, and available at http://rsb.info.nih.eov/nih-imaee/).
The final concentrations of the inhibiting oligosaccharides on the TLC-plate were 0.3 mM. […] Thereafter the chromatogram binding assay was performed as described above.

[3] = test system: diarrheagenic Escherichia coli CCUG 38068 (EPEC); assay: Chromatogram binding assay of 35S-labeled bacteria to glycosphingolipids on thin-layer plates; conditions: thin-layer chromatograms, TLC overlay
Experimental: (§2) Culture Conditions and Labeling—The E. coli strains were cultured on Luria-agar with the addition of 10 μl ^35S-methionine (400 tici; Amersham Pharmacia Biotech, U.K.) at 37° C. for 12 h. The bacteria were harvested by scraping, washed three times with phosphate-buffered saline (PBS), pH 7.3, and thereafter resuspended in PBS (with or without 1% mannose (w/v)) to 1×10^8 CFU/ml. The specific activities of the suspensions were approximately 1 cpm per 100 bacteria.
(§3) Thin-Layer Chromatography—Thin-layer chromatography of glycosphingolipids was performed on glass- or aluminum-backed silica gel 60 HPTLC plates (Merck, Darmstadt, Germany), using chloroform/methanol/water 60:35:8 (by volume) as solvent system. Chemical detection was done with anisaldehyde (6).
as §1

[4] = test system: diarrheagenic Escherichia coli CCUG 38077 (EAEC); assay: as above; conditions: thin-layer chromatograms, TLC overlay
Experimental: as §2, §3, §1

GalNAcβ4Galβ4Glcβ1Cer [No. 10]
Binding of an EPEC strain to commercial glycolipids [1]: observed to bind

CC(=O)N[C@H]1C(O)O[C@H](CO)[C@H](O)[C@@H]1O[C@@H]1O[C@H](CO)[C@H](O)[C@H](O)[C@H]1O (some centres unmarked) [Galβ3GalNAc]
Activity as monovalent inhibitor against the Ganglio-receptor glycolipid ([2]; 0.3 mM concentration): not active

CC(=O)N[C@H]1[C@H](O[C@H]2[C@@H](O)[C@@H](CO)O[C@@H](O[C@H]3[C@H](O)[C@@H](O)C(O)O[C@@H]3CO)[C@@H]2O)O[C@H](CO)[C@@H](O[C@@H]2O[C@H](CO)[C@H](O)[C@H](O)[C@H]2O)[C@@H]1O (mixture of isomers) [Lacto-N-neotetraose, Galβ4GlcNAcβ3Galβ4Glc]
Inhibition of binding to neolacto glycolipid ([2]; 0.3 mM final concentration): inhibited binding

CCCCCCCCCCCCCCCCc1ccc(NC[C@H](O)[C@@H](O)[C@H](O[C@@H]2O[C@H](CO[C@@H]3O[C@H](CO)[C@@H](O[C@@H]4O[C@H](CO)[C@H](O)[C@H](O[C@@H]5O[C@H](CO)[C@@H](O)[C@H](O)[C@H]5NC(C)=O)[C@H]4O)[C@H](O)[C@H]3NC(C)=O)[C@H](O)[C@H](O)[C@H]2O)[C@H](O)CO)cc1 [GlcNAcβ3Galβ4GlcNAcβ6Galβ4Glc(red)HDA, GlcNAcβ3Galβ4GlcNAcβ6Galβ4Glc(red)-HDA]
Binding of strain CCUG 38068 to glycosphingolipids and neoglycolipids, in words [3]: much weaker or non-existent binding activities | Binding of strain CCUG 38077 to glycosphingolipids and neoglycolipids, in words [4]: much weaker or non-existent binding activities

CCCCCCCCCCCCCCCCc1ccc(NC[C@H](O)[C@@H](O)[C@H](O[C@@H]2O[C@H](CO[C@@H]3O[C@H](CO)[C@@H](O)[C@H](O)[C@H]3NC(C)=O)[C@H](O)[C@H](O[C@@H]3O[C@H](CO)[C@@H](O)[C@H](O[C@@H]4O[C@H](CO)[C@H](O)[C@H](O)[C@H]4O)[C@H]3NC(C)=O)[C@H]2O)[C@H](O)CO)cc1 [Galβ3GlcNAcβ3(GlcNAcβ6)Galβ4Glc(red)-HDA]
Binding of strain CCUG 38068 to glycosphingolipids and neoglycolipids, in words [3]: much weaker or non-existent binding activities | Binding of strain CCUG 38077 to glycosphingolipids and neoglycolipids, in words [4]: much weaker or non-existent binding activities

CCCCCCCCCCCCCCCCc1ccc(NC[C@@H](O)[C@@H](O[C@H]2O[C@H](CO)[C@@H](O)[C@H](O)[C@@H]2O)[C@H](O)[C@H](O)CO[C@H]2O[C@H](CO)[C@@H](O)[C@H](O)[C@@H]2O)cc1 [Manα3(Manα6)Man(red)-HDA]
Binding of strain CCUG 38068 to glycosphingolipids and neoglycolipids, in words [3]: had binding activity | Binding of strain CCUG 38068 to glycosphingolipids and neoglycolipids, in words ([3]; listed as Manα3(Manα6)Man): bind | Binding of strain CCUG 38077 to glycosphingolipids and neoglycolipids, in words [4]: had binding activity | Binding of strain CCUG 38077 to glycosphingolipids and neoglycolipids, in words ([4]; listed as Manα3(Manα6)Man): bind

CC(=O)N[C@H]1[C@H](O[C@H]2[C@@H](O)[C@@H](CO)O[C@@H](O[C@H]3[C@H](O)[C@@H](O)C(O)O[C@@H]3CO)[C@@H]2O)O[C@H](CO)[C@@H](O)[C@@H]1O[C@@H]1O[C@H](CO)[C@H](O)[C@H](O)[C@H]1O (some centres unmarked) [Lacto-N-tetraose, Galβ3GlcNAcβ3Galβ4Glc]
Inhibition of binding to lactotetraosylceramide ([2]; lowest densities of glycolipids): able to inhibit | Binding of an EPEC strain to commercial glycolipids [1]: observed to bind

CCCCCCCCCCCCCCCCc1ccc(NC[C@H](O)[C@@H](O)[C@H](O[C@@H]2O[C@H](CO)[C@H](O)[C@H](O[C@@H]3O[C@H](CO)[C@@H](O[C@@H]4O[C@H](CO)[C@H](O)[C@H](O[C@@H]5O[C@H](CO)[C@@H](O)[C@H](O)[C@H]5NC(C)=O)[C@H]4O)[C@H](O)[C@H]3NC(C)=O)[C@H]2O)[C@H](O)CO)cc1 [GlcNAcβ3Galβ4GlcNAcβ3Galβ4Glc(red)-HDA]
Binding of strain CCUG 38068 to glycosphingolipids and neoglycolipids, in words [3]: had binding activity | Binding of strain CCUG 38077 to glycosphingolipids and neoglycolipids, in words [4]: had binding activity

Galα4Galβ4Glcβ1Cer [No. 8]
Binding of an EPEC strain to commercial glycolipids [1]: negative

GalNAcα3GalNAcβ3Galα4Galβ4Glcβ1Cer [No. 14]
Binding of an EPEC strain to commercial glycolipids [1]: negative
